Experimental data as given in ChEMBL document CHEMBL1124199, “Thienylpyrazoloquinolines: potent agonists and inverse agonists to benzodiazepine receptors” (J Med Chem, 1988).
Calls of active or inactive are those of the source. The rule behind the calls is not given here.

Columns and labels:
Mus musculus [1] = assay: Agonist activity was evaluated by the inhibition of the pentylenetetrazole (PTZ) induced convulsions after peroral administration; type: functional; conditions: po
[2] = molecular target: GABA-A receptor; anion channel; assay: Binding affinity against benzodiazepine (BZ) receptor by displacing [3H]diazepam in cerebral cortex of Wistar rats; type: tissue-based, Rattus norvegicus
Mus musculus [3] = assay: Agonist activity was evaluated by the inhibition of the pentylenetetrazole (PTZ) induced convulsions after peroral administration; Inactive up to 50 mg/kg; type: functional, organism-based; set-up: dose 50 mg/kg
Mus musculus [4] = assay: Inverse agonist activity of orally administered compound against a subcutaneous dose of 75 mg/kg of PTZ-induced convulsions in mice; inactive up to 50 mg/kg; type: functional, organism-based
Mus musculus [5] = assay: Inverse agonist activity of orally administered compound against a subcutaneous dose of 90 mg/kg of PTZ-induced convulsions in mice expressed as percent of mice affected; type: functional; conditions: route oral
Mus musculus [6] = assay: Inverse agonist activity of orally administered compound against a subcutaneous dose of 90 mg/kg of PTZ-induced convulsions in mice; Inactive up to 50 mg/kg; type: functional, organism-based
Mus musculus [7] = assay: Agonist activity was evaluated by the inhibition of the pentylenetetrazole (PTZ) induced convulsions after peroral administration at 50 mg/kg; type: functional; conditions: route oral
Mus musculus [8] = assay: Inverse agonist activity of orally administered compound against a subcutaneous dose of 90 mg/kg of PTZ-induced convulsions in mice; inactive up to 50 mg/kg; type: functional, organism-based
Mus musculus [9] = assay: Inverse agonist activity of orally administered compound against a subcutaneous dose of 90 mg/kg of PTZ-induced convulsions in mice; Inactive; type: functional, organism-based; set-up: dose 90 mg/kg
Mus musculus [10] = assay: Inverse agonist activity of orally administered compound against a subcutaneous dose of 75 mg/kg of PTZ-induced convulsions in mice; type: functional; conditions: route oral
Mus musculus [11] = assay: Inverse agonist activity of orally administered compound against a subcutaneous dose of 90 mg/kg of PTZ-induced convulsions in mice; type: functional; conditions: route oral
Mus musculus [12] = assay: Inverse agonist activity of orally administered compound against a subcutaneous dose of 50 mg/kg of PTZ-induced convulsions in mice; expressed as percent of mice affected; type: functional; conditions: route oral
Mus musculus [13] = assay: Inverse agonist activity of orally administered compound against a subcutaneous dose of 50 mg/kg of PTZ-induced convulsions in mice; type: functional; conditions: route oral
Mus musculus [14] = assay: Inverse agonist activity of orally administered compound against a subcutaneous dose of 90 mg/kg of PTZ-induced convulsions in mice; inactive; type: functional, organism-based; set-up: dose 90 mg/kg
Mus musculus [15] = assay: Inverse agonist activity of orally administered compound against a subcutaneous dose of 75 mg/kg of PTZ-induced convulsions in mice; Inactive up to 50 mg/kg; type: functional, organism-based

SMILES | Ki [2] [nM] | ED50 (Mus musculus [3]) | ED50 (Mus musculus [11]) [mg/kg] | further results
Cc1ccc(-n2nc3c4ccccc4n(C)cc-3c2=O)s1 | 1020 |  |  | ED50 (Mus musculus [1]): 13.4 mg/kg
Cc1csc(-n2[nH]c3c(cnc4ccccc43)c2=O)c1 | 0.48 | inactive |  | ED50 (Mus musculus [4]): inactive; Affected animals (Mus musculus [5]): 62.5%
Cc1ccc(-n2[nH]c3c(cnc4c(Cl)cccc43)c2=O)s1 | 0.75 |  |  | ED50 (Mus musculus [6]): inactive; Animals affected (Mus musculus [7]): 25%
Cc1cc(-n2[nH]c3c(cnc4ccccc43)c2=O)c(Br)s1 | 27.2 | inactive |  | ED50 (Mus musculus [4]): inactive; ED50 (Mus musculus [8]): inactive
Cc1ccc2c(c1)ncc1c(=O)n(-c3ccc(C)s3)[nH]c12 | 2.34 | inactive |  | ED50 (Mus musculus [9]): inactive
O=c1c2cnc3ccccc3c2[nH]n1-c1ccc(Cl)s1 | 2.48 | inactive |  | Affected animals (Mus musculus [5]): 25%
Cc1cc(-n2[nH]c3c(cnc4c(Cl)cccc43)c2=O)cs1 | 0.63 |  | 7.7 | ED50 (Mus musculus [10]): 13.5 mg/kg
Cc1cc(-n2[nH]c3c(cnc4ccccc43)c2=O)cs1 |  |  | 0.92 | 
Cc1cc(-n2[nH]c3c(cnc4c(C)cccc43)c2=O)cs1 | 0.38 |  | 5.24 | ED50 (Mus musculus [10]): 12.9 mg/kg
Cc1cc(-n2[nH]c3c(cnc4cc(F)ccc43)c2=O)cs1 | 0.64 |  | 6.15 | Affected animals (Mus musculus [12]): 37.7%
O=c1c2cnc3ccccc3c2[nH]n1-c1cccs1 | 0.41 | inactive | 9.54 | Animals affected (Mus musculus [13]): 50%
CCc1cc(-n2[nH]c3c(cnc4ccccc43)c2=O)cs1 | 0.41 |  | 10.3 | ED50 (Mus musculus [4]): inactive
O=c1c2cnc3ccccc3c2[nH]n1-c1csc(Cl)c1 | 0.73 |  | 11.5 | ED50 (Mus musculus [10]): 23.2 mg/kg
O=C(O)c1sccc1-n1[nH]c2c(cnc3ccccc32)c1=O | 17.8 | inactive |  | ED50 (Mus musculus [4]): inactive; ED50 (Mus musculus [9]): inactive
Cc1cscc1-n1[nH]c2c(cnc3ccccc32)c1=O | 6.86 |  | 22.3 | ED50 (Mus musculus [10]): 84.4 mg/kg
COC(=O)c1sccc1-n1[nH]c2c(cnc3ccccc32)c1=O | 142 | inactive |  | ED50 (Mus musculus [4]): inactive; ED50 (Mus musculus [14]): inactive
CCc1ccc(-n2[nH]c3c(cnc4ccccc43)c2=O)s1 | 1.02 |  |  | ED50 (Mus musculus [1]): 14.3 mg/kg
Cc1cc(-n2[nH]c3c(cnc4cc(Cl)ccc43)c2=O)cs1 | 0.78 | inactive |  | ED50 (Mus musculus [4]): inactive; ED50 (Mus musculus [8]): inactive

SMILES | Ki [2] [nM] | ED50 (Mus musculus [3]) | ED50 (Mus musculus [11]) [mg/kg] | further results
Cc1ccc(-n2[nH]c3c(cnc4c(C)cccc43)c2=O)s1 | 0.83 |  |  | ED50 (Mus musculus [6]): inactive; ED50 (Mus musculus [1]): 25 mg/kg
CCn1cc2c(=O)n(-c3csc(C)c3)nc-2c2ccccc21 | 436 |  | 5.24 | ED50 (Mus musculus [10]): 13.3 mg/kg
Cc1cc(-n2[nH]c3c(cnc4ccccc43)c2=O)c(Cl)s1 | 4.69 | inactive |  | ED50 (Mus musculus [4]): inactive; ED50 (Mus musculus [9]): inactive
Cc1cc(-n2nc3c4ccccc4n(C)cc-3c2=O)cs1 | 215 |  | 1.48 | ED50 (Mus musculus [10]): 2.94 mg/kg
CCOC(=O)c1cc(C)sc1-n1[nH]c2c(cnc3ccccc32)c1=O | 9.84 | inactive |  | ED50 (Mus musculus [6]): inactive
O=C1C2C=Nc3ccccc3C2=NN1c1ccccc1 (centres undefined) |  |  |  | ED50 (Mus musculus [15]): inactive
O=C1C2C=Nc3ccccc3C2=NN1c1ccc(Cl)cc1 (centres undefined) [CGS-9896] | 0.83 |  |  | ED50 (Mus musculus [1]): 1.17 mg/kg
Cc1cc(-n2[nH]c3c(cnc4c(F)cccc43)c2=O)cs1 | 0.37 |  | 1.32 | ED50 (Mus musculus [10]): 2.58 mg/kg
CCCCc1ccc(-n2[nH]c3c(cnc4ccccc43)c2=O)s1 | 1.48 |  |  | ED50 (Mus musculus [1]): 12.5 mg/kg
Cc1cc(C(=O)O)c(-n2[nH]c3c(cnc4ccccc43)c2=O)s1 | 21.6 | inactive |  | ED50 (Mus musculus [6]): inactive
Cc1ccc(-n2[nH]c3c(cnc4cc(Cl)ccc43)c2=O)s1 | 1.05 | inactive |  | ED50 (Mus musculus [6]): inactive
Cc1ccc(-n2[nH]c3c(cnc4cc(F)ccc43)c2=O)s1 | 0.65 |  |  | ED50 (Mus musculus [1]): 16.3 mg/kg
Cc1cc(-n2[nH]c3c(cnc4ccccc43)c2=O)sc1C | 0.73 |  |  | ED50 (Mus musculus [1]): 30.6 mg/kg
O=c1c2cnc3ccccc3c2[nH]n1-c1ccsc1 | 0.73 |  | 2.49 | ED50 (Mus musculus [10]): 7.62 mg/kg
CN1C(=O)CN=C(c2ccccc2)c2cc(Cl)ccc21 [DIAZEPAM] |  |  |  | ED50 (Mus musculus [1]): 0.67 mg/kg
Cc1ccc(-n2[nH]c3c(cnc4c(F)cccc43)c2=O)s1 | 0.92 |  |  | ED50 (Mus musculus [1]): 30.4 mg/kg
Cc1ccc2c(c1)ncc1c(=O)n(-c3csc(C)c3)[nH]c12 | 0.96 | inactive |  | ED50 (Mus musculus [9]): inactive
